What was measured:
[1] = system: EGFP-NFATc3 nuclear translocation; assay: NFAT nuclear translocation in Jurkat T-cells stimulated by ionomycin; type: cell-based, human; conditions: 1 μM ionomycin
Kv1.3 = molecular target: T1, Kv1.3 (Homo sapiens, UniProt P22001); assay: Immunofluorescence colocalization in Jurkat T-cells; type: cell-based; conditions: plasma membrane of Jurkat T-cells
T1 construct: endogenous in cells; host or cells: Jurkat T-cells
Experimental: Jurkat T-cells treated with clofazimine were centrifuged onto L-lysine-coated coverslips. Cells were fixed with 4% p-formaldehyde for 15 min. The cells were washed in PBS, permeabilized by −20° C. methanol and blocked with 10% donkey serum in PBS. The fixed cells were then incubated with Kv1.3 primary antibody (sc-17239 at 1:100 dilution) for 1 h. Cells were washed in PBS (3×5 min) and incubated with donkey anti-goat Cy5 antibodies for an additional 1 h. Cells were then washed three times in PBS, mounted, and photographed. Mounting was performed using Vectashield mounting medium (Vector Laboratories) and images were captured using either a Zeiss LSM510 confocal microscope. Merged images were compiled using LSM5 Image Examiner or Adobe Photoshop CS.

murine skin transplant = assay: Mouse skin transplantation with adoptive transfer of murine cells (parallel experiment); type: in vivo; conditions: murine skin and total murine T-cells
Text: FIG. 5. […] (A) Representative skin grafts at different days post-transplantation. Human foreskin was transplanted onto Pfp/Rag2−/− mice. 1.0×10^8 human peripheral blood lymphocytes (PBL) were adoptively transferred into each animal at Day 7 post-transplantation. Administration of clofazimine or carrier control (olive oil) was also initiated at Day 7. * Days after skin transplantation/cell transfer. (B) Effect of clofazimine on the mean survival time of transplanted human (n=5) and mouse (n=4) skin grafts. The mouse skin transplantation was performed using Balb/c mice as skin donors, B6 Rag1−/− mice as recipients and PBL from B6 for adoptive transfer.

[2] = molecular target: calcium-activated IKCa1 potassium channel (Homo sapiens, UniProt O15554); assay: Activity of IKCa1 channel (data not shown); type: cell-based; conditions: up to 10 μM
[3] = system: human mixed lymphocyte reaction; assay: Human mixed lymphocyte reaction (MLR), [3H]-thymidine incorporation; type: cell-based; conditions: FIG. 1B, n=6
Experimental: The human MLR was established by coculturing normal human PBMN responder lymphocytes (0.5×10^6) with an equal number of miomycin C-treated stimulator cells in RPMI1640 complete medium. The cells were incubated with varying doses of clofazimine at 37° C. in a humidified atmosphere of 5% CO2 for 4 days. Then 1 μCi of [^3H]-thymidine was added into culture and incubation was continued for 6 h. The cells were harvested and [^3H]-thymidine incorporated into cells was measured in a liquid scintillation counter.

[4] = system: calcium oscillation in Jurkat T-cells; assay: Calcium oscillation in Jurkat T-cells (10 nM TG); type: cell-based, human; conditions: for cells with elongated calcium oscillation period: 10 nM TG, Jurkat T-cells
Experimental: JurkaT-cells were attached to L-lysine-coated glass dishes (MatTek). Cells were loaded with fura-2-AM (Invitrogen_F-1201) for 45 min before they were washed sequentially with growth medium and Ca^2+-free HBSS. Fluorescence excitation wavelengths were set at 350 and 380 nm, respectively, on a Zeiss Axiovert 200M microscope while emission wavelength was set at 510 nm. Changes in intracellular calcium concentrations were determined by fluorescence intensity ratio ([…]/F380).

[5] = system: endogenous NFATc2 dephosphorylation; assay: Dephosphorylation of endogenous NFATc2 in Jurkat T-cells (Western blot); type: cell-based, human; conditions: ionomycin treatment
Experimental: Jurkat T-cells were pretreated with indicated compounds for 1 h before 3 μM (final concentration) ionomycin was added. Cells were harvested after 30 min and lysed in a lysis buffer [40 mM Tris (pH 7.8), 1% NP-40, 10 mM EDTA, 60 mM […] and common protease inhibitors] by sonication. NFATc2 was resolved by 8% SDS-PAGE followed by Western blot analysis using anti-NFAT antibodies (Santa-cruz Sc-7296, 1:100 dilution).

[6] = system: human foreskin graft in Pfp/Rag2−/− mice with human PBL; assay: Human T-cell-mediated human skin graft rejection in immunodeficient mice; type: in vivo, mouse
Text: Kv1.3 has been implicated in T-cell activation and has served as a molecular target for developing novel immunosuppressive agents. Given that clofazimine is already used in the clinic, albeit for a completely different indication, we wondered whether it is efficacious in animal models of organ transplantation. […] These negative results are not surprising given that Kv1.3 plays distinct roles in humans and rodents, as it has been shown that Kv1.3 is dispensable in mice due to the up-regulation of other chloride channels. […] To overcome this problem, we turned to a model of reconstituted human T-cell-mediated human skin rejection in immunodeficient mice. We thus transplanted human foreskin into Pfb-Rag2−/− mice that lack T, B and NK cells. Upon healing of the skin graft for about 7 days, a total of 100 million human peripheral blood lymphocytes from an unrelated donor were adoptively transferred into the same animals. The animals were treated orally with either DMSO (control) or clofazimine at 50 mg/kg/day for a total of 10 days (FIG. 5A). For the control group, the transplanted foreskin was rejected with a median survival time of 11 days (FIG. 5B).
The experimental procedure is similar to that described previously. Clofazimine suspension in olive oil was administered p.o. at 50 mg/kg/day in a total volume of 0.2 ml per administration.

[7] = system: graft versus host disease; conditions: open label study; cited from earlier work

T1 sequence (P22001 whole entry): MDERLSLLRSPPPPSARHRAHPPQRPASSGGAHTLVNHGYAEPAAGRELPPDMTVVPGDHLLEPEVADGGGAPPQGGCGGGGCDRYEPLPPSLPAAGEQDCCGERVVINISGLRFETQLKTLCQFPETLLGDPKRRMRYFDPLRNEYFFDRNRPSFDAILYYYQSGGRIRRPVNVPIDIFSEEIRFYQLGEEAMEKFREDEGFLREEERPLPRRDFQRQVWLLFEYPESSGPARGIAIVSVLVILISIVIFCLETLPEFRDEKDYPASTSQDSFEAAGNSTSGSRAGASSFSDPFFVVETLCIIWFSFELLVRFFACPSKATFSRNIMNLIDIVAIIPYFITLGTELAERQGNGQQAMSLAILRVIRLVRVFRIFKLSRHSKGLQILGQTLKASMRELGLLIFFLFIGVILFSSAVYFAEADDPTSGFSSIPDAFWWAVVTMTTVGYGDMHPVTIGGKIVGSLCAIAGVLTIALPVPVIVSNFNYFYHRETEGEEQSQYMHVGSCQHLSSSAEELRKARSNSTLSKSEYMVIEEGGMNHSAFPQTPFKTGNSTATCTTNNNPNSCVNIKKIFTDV
Chain of calcium-activated IKCa1 potassium channel (O15554 whole entry): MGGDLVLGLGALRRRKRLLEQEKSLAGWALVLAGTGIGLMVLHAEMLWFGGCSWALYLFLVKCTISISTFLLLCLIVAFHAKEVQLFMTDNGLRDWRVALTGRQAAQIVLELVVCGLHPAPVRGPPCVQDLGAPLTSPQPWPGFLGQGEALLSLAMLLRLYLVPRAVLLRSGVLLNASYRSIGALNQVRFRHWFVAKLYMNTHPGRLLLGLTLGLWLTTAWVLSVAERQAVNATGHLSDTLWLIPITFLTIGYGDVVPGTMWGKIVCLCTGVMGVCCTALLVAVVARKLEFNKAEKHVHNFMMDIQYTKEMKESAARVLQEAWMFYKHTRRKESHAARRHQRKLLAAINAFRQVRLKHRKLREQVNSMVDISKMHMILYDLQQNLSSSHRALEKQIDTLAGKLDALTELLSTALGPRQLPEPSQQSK

CC(C)/N=c1\cc2n(-c3ccc(Cl)cc3)c3ccccc3nc-2cc1Nc1ccc(Cl)cc1 [clofazimine, Clofazimine]
effect on NFAT nuclear translocation [1]: blocked the ionomycin-induced nuclear translocation
effect on NFAT nuclear translocation ([1]; listed as Clofazimine): inhibits EGFP-NFATc3 nuclear translocation
subcellular localization relative to Kv1.3 (Kv1.3): same subcellular localization pattern
subcellular localization relative to Kv1.3 (Kv1.3; listed as Clofazimine): colocalizes with Kv1.3
effect on survival of murine skin transplant (murine skin transplant): no effect on the survival
effect on IKCa1 channel activity [2]: remained unaffected
IC50 [3]: 900 ± 170 nM
cells with elongated calcium oscillation period [4]: Over 80%
cells with elongated calcium oscillation period ([4]; listed as Clofazimine): more than 80%
effect on calcium oscillation pattern ([4]; low concentration of thapsigargin): decreased the amplitude and increased the period
effect on dephosphorylation of endogenous NFATc2 [5]: inhibited ionomycin-induced dephosphorylation of NFATc2 in a dose-dependent manner
effect on dephosphorylation of endogenous NFATc2 ([5]; listed as Clofazimine): inhibits dephosphorylation
mean survival time of transplanted human skin ([6]; 50 mg/kg/day orally for 10 days, n=5): 35 days
effect on human T-cell-mediated skin graft rejection ([6]; immunodeficient mice): inhibits human T-cell-mediated skin graft rejection
patients able to decrease the amount of other medication [7]: ~25%

From patent US8669257B2, “Phenazine derivatives and uses thereof as potassium channel modulators” (The Johns Hopkins University, priority 2007, dated 2014)
